Results from US9822124B2, “Bicyclic heteroaromatic carboxamide compounds useful as Pim kinase inhibitors” (Incyte Corporation, priority 2014, dated 2017).

Assays:
Type in all cases: biochemical
[1] = biological target: Pim-1 (Homo sapiens (Human), UniProt P11309); experiment: Pim-1 kinase assay (AlphaScreen, Biotin-labeled BAD peptide substrate); settings: 1 mM ATP; read-out: Pim1 IC50
In short: (§1)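 Kinase reactions ran 1 h at 25° C, pH 7.5, with 0.05 μM biotin-BAD peptide, 1 mM ATP, and 2.5 μM Pim-1 or 1.25 μM Pim-3. EDTA stop buffer carried anti-phospho-Bad (Ser112) antibody plus streptavidin donor and Protein-A acceptor beads. AlphaScreen signal was read after 1 h in the dark.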

[2] = biological target: Pim-2 (Homo sapiens (Human), UniProt Q9P1W9); experiment: Pim-2 kinase assay (TR-FRET, Fluorescein-labeled CREBtide peptide substrate); settings: 1 mM ATP; read-out: Pim2 IC50
Sequence of Pim-2 (Q9P1W9 whole entry): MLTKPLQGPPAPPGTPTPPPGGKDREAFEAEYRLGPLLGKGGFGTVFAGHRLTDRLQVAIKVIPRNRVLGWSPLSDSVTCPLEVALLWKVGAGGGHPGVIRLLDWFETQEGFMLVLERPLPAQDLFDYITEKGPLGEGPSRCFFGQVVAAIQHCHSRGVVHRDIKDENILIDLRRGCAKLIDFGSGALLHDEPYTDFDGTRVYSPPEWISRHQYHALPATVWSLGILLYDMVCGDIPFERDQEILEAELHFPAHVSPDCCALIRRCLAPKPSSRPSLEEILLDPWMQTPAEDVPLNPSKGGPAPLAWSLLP
In short: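 Human Pim-2 (1 nM) phosphorylated 0.05 μM fluorescein-CREBtide with 1 mM ATP for 2 h at 25 °C in Tris buffer pH 7.5 containing MgCl2, DTT, BSA and Tween-20. Reactions were stopped with EDTA and Tb-anti-pSer133 antibody was added, and TR-FRET was read after 30 min.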

[3] = biological target: Pim-3 (Homo sapiens (Human), UniProt Q86V86); experiment: Pim-3 kinase assay (AlphaScreen, Biotin-labeled BAD peptide substrate); settings: 1 mM ATP; read-out: Pim3 IC50
In short: as §1

Sequence of Pim-1 (P11309 whole entry): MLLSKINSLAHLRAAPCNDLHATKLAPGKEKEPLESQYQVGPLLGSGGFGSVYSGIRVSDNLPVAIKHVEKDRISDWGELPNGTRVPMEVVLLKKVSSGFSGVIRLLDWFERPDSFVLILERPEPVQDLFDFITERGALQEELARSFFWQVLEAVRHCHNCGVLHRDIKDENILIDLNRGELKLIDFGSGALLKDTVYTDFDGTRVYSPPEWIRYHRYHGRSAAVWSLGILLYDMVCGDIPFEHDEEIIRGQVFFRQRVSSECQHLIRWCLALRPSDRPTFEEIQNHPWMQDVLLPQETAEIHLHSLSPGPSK

SMILES | IC50 [1] | IC50 [2] | IC50 [3]
CC(C)c1csc2ccc(C(=O)Nc3cnccc3N3C[C@H](C)C[C@H](N)C3)nc12 [Example 62, N-(4-((3S,5R)-3-Amino-5-methylpiperidin-1-yl)pyridin-3-yl)-3-isopropylthieno[3,2-b]pyridine-5-carboxamide] | ≤ 0.01 µM | ≤ 0.1 µM | ≤ 0.01 µM
C[C@@H]1C[C@H](N)CN(c2ccncc2NC(=O)c2ccc3scc(-c4cnn(C)c4)c3n2)C1 [Example 63, N-(4-((3S,5R)-3-Amino-5-methylpiperidin-1-yl)pyridin-3-yl)-3-(1-methyl-1H-pyrazol-4-yl)thieno[3,2-b]pyridine-5-carboxamide] | ≤ 0.01 µM | > 2 µM | > 0.04 µM
COc1ccc(F)c(-c2csc3ccc(C(=O)Nc4cnccc4N4C[C@H](C)C[C@H](N)C4)nc23)c1F [Example 64, N-(4-((3S,5R)-3-Amino-5-methylpiperidin-1-yl)pyridin-3-yl)-3-(2,6-difluoro-3-methoxyphenyl)thieno[3,2-b]pyridine-5-carboxamide] | ≤ 0.01 µM | 0.1 to 1 µM | 0.01 to 0.05 µM
C[C@@H]1C[C@H](N)CN(c2ccncc2NC(=O)c2ccc3scc(C4CC4)c3n2)C1 [Example 65, N-(4-((3S,5R)-3-Amino-5-methylpiperidin-1-yl)pyridin-3-yl)-3-cyclopropylthieno[3,2-b]pyridine-5-carboxamide] | ≤ 0.01 µM | ≤ 0.1 µM | ≤ 0.01 µM
CCc1csc2ccc(C(=O)Nc3cnccc3N3CCC[C@H](N)C3)nc12 [Example 66, N-{4-[(3S)-3-Aminopiperidin-1-yl]pyridin-3-yl}-3-ethylthieno[3,2-b]pyridine-5-carboxamide] | ≤ 0.01 µM | 0.1 to 1 µM | ≤ 0.01 µM
N[C@H]1CCCN(c2ccncc2NC(=O)c2ccc3scc(C4CC4)c3n2)C1 [Example 67, (S)-N-(4-(3-Aminopiperidin-1-yl)pyridin-3-yl)-3-cyclopropylthieno[3,2-b]pyridine-5-carboxamide] | ≤ 0.01 µM | 0.1 to 1 µM | ≤ 0.01 µM
CC(C)c1coc2ccc(C(=O)Nc3cnccc3[C@@H]3C[C@H](C)C[C@H](N)C3)nc12 [Example 68, N-{4-[(1R,3S,5S)-3-Amino-5-methylcyclohexyl]pyridin-3-yl}-3-isopropylfuro[3,2-b]pyridine-5-carboxamide] | ≤ 0.01 µM | ≤ 0.1 µM | ≤ 0.01 µM
C[C@H]1CN(c2ccncc2NC(=O)c2ccc3cc(C4CC4)oc3n2)C[C@@H](N)[C@@H]1O [Example 69, N-{4-[(3R,4R,5S)-3-Amino-4-hydroxy-5-methylpiperidin-1-yl]pyridin-3-yl}-2-cyclopropylfuro[2,3-b]pyridine-6-carboxamide] | ≤ 0.01 µM | ≤ 0.1 µM | ≤ 0.01 µM
C[C@@H]1C[C@H](N)CN(c2ccncc2NC(=O)c2ccc3cc(C4CC4)oc3n2)C1 [Example 70, N-{4-[(3S,5R)-3-Amino-5-methylpiperidin-1-yl]pyridin-3-yl}-2-cyclopropylfuro[2,3-b]pyridine-6-carboxamide] | ≤ 0.01 µM | ≤ 0.1 µM | ≤ 0.01 µM
C[C@H]1CN(c2ccncc2NC(=O)c2ccc3cc([C@@H]4C[C@H]4c4ccccc4)oc3n2)C[C@@H](N)[C@@H]1O [Example 71, N-(4-((3R,4R,5S)-3-Amino-4-hydroxy-5-methylpiperidin-1-yl)pyridin-3-yl)-2-((1R,2R)-2-phenylcyclopropyl)furo[2,3-b]pyridine-6-carboxamide] | ≤ 0.01 µM | ≤ 0.1 µM | ≤ 0.01 µM
C[C@H]1CN(c2ccncc2NC(=O)c2ccc3cc([C@H]4C[C@@H]4c4ccccc4)oc3n2)C[C@@H](N)[C@@H]1O [Example 72, N-(4-((3R,4R,5S)-3-Amino-4-hydroxy-5-methylpiperidin-1-yl)pyridin-3-yl)-2-((1S,2S)-2-phenylcyclopropyl)furo[2,3-b]pyridine-6-carboxamide] | ≤ 0.01 µM | 1 to 10 µM | ≤ 0.01 µM
C[C@H]1CN(c2ccncc2NC(=O)c2ccc3ccn(C4CCC4)c3n2)C[C@@H](N)[C@@H]1O [Example 77, N-{4-[(3R,4R,5S)-3-Amino-4-hydroxy-5-methylpiperidin-1-yl]pyridin-3-yl}-1-cyclobutyl-1H-pyrrolo[2,3-b]pyridine-6-carboxamide] | ≤ 0.01 µM | 1 to 10 µM | ≤ 0.01 µM
C[C@@H]1C[C@H](N)CN(c2ccncc2NC(=O)c2ccc3ccn(C4CCC4)c3n2)C1 [Example 78, N-{4-[(3S,5R)-3-Amino-5-methylpiperidin-1-yl]pyridin-3-yl}-1-cyclobutyl-1H-pyrrolo[2,3-b]pyridine-6-carboxamide] | ≤ 0.01 µM | 0.1 to 1 µM | ≤ 0.01 µM
C[C@H]1CN(c2ccncc2NC(=O)c2ccc3sc(C4CC4)nc3n2)C[C@@H](N)[C@@H]1O [Example 79, N-{4-[(3R,4R,5S)-3-Amino-4-hydroxy-5-methylpiperidin-1-yl]pyridin-3-yl}-2-cyclopropyl[1,3]thiazolo[4,5-b]pyridine-5-carboxamide] | ≤ 0.01 µM | 0.1 to 1 µM | ≤ 0.01 µM
C[C@@H]1C[C@H](N)CN(c2ccncc2NC(=O)c2ccc3sc(C4CC4)nc3n2)C1 [Example 80, N-(4-((3S,5R)-3-Amino-5-methylpiperidin-1-yl)pyridin-3-yl)-2-cyclopropylthiazolo[4,5-b]pyridine-5-carboxamide] | ≤ 0.01 µM | 0.1 to 1 µM | ≤ 0.01 µM
C[C@@H]1C[C@H](N)C[C@H](c2ccncc2NC(=O)c2ccn3ncc(-c4c(F)cc(CO)cc4F)c3n2)C1 [Example 81, N-{4-[(1R,3S,5S)-3-Amino-5-methylcyclohexyl]pyridin-3-yl}-3-[2,6-difluoro-4-(hydroxymethyl)phenyl]pyrazolo[1,5-a]pyrimidine-5-carboxamide] | ≤ 0.01 µM | ≤ 0.1 µM | ≤ 0.01 µM
CC(C)c1cnn2ccc(C(=O)Nc3cnccc3[C@@H]3C[C@H](C)C[C@H](N)C3)nc12 [Example 82, N-{4-[(1R,3S,5S)-3-Amino-5-methylcyclohexyl]pyridin-3-yl}-3-isopropylpyrazolo[1,5-a]pyrimidine-5-carboxamide] | ≤ 0.01 µM | 1 to 10 µM | 0.01 to 0.05 µM
C[C@@H]1C[C@H](N)C[C@H](c2ccncc2NC(=O)c2ccn3ncc(-c4c(F)cccc4F)c3n2)C1 [Example 83, N-{4-[(1R,3S,5S)-3-Amino-5-methylcyclohexyl]pyridin-3-yl}-3-(2,6-difluorophenyl)pyrazolo[1,5-a]pyrimidine-5-carboxamide] | ≤ 0.01 µM | 0.1 to 1 µM | ≤ 0.01 µM
COc1cc(F)c(-c2cnn3ccc(C(=O)Nc4cnccc4[C@@H]4C[C@H](C)C[C@H](N)C4)nc23)c(F)c1 [Example 84, N-{4-[(1R,3S,5S)-3-Amino-5-methylcyclohexyl]pyridin-3-yl}-3-(2,6-difluoro-4-methoxyphenyl)pyrazolo[1,5-a]pyrimidine-5-carboxamide] | ≤ 0.01 µM | ≤ 0.1 µM | ≤ 0.01 µM
CCc1cc2nc(C(=O)Nc3cnccc3N3C[C@@H](N)[C@H](O)[C@@H](C)C3)ccc2s1 [Example 85, N-(4-((3R,4R,5S)-3-amino-4-hydroxy-5-methylpiperidin-1-yl)pyridin-3-yl)-2-ethylthieno[3,2-b]pyridine-5-carboxamide] | ≤ 0.01 µM | ≤ 0.1 µM | ≤ 0.01 µM
